Laboratory results taken from patent US20240390316A1 (SHENZHEN TECHNOLOGY UNIVERSITY, priority 2022, published 2024).
Where a name gives a salt, the structure may show the parent alone.

Assays:
[1] = tested on: CVB1; settings: Coxsackievirus B type 1; CPE in vitro
Experimental: 72 hours later, the degree of a cytopathic effect was detected by an AlamarBlue fluorescent reagent, and an inhibition rate was calculated by using a formula.

[2] = tested on: Coxsackievirus B; experiment: Inhibition rate at 25 μM in virus-infected Vero cells (AlamarBlue); assay type: cell-based; settings: 72 hours, FIG. 3
Experimental: (§1) Test 3: In vitro anti-CVB1, anti-CVB2, anti-CVB3, anti-CVA16, anti-EV71 BrCr and anti-EV71-C2 virus models of Vero cells (cell quantity: 1.5×10^4 cells per well) were established, respectively. […] An inhibition rate and a standard deviation were measured by an AlamarBlue test in three parallel tests.

[3] = tested on: CVB3; settings: Coxsackievirus B type 3; CPE in vitro
[4] = tested on: enterovirus type 71 (BrCr/C4 subtype); experiment: Antiviral activity against enterovirus type 71 (CPE in vitro); assay type: cell-based
Experimental: as §1

[5] = tested on: Coxsackievirus A (6/10/16 subtype); experiment: Antiviral activity against Coxsackievirus A (CPE in vitro); assay type: cell-based
Experimental: as §1

[6] = tested on: CVB1; experiment: Time process test (administration time after infection); assay type: cell-based, Coxsackievirus B1 (CVB1); settings: different administration times, FIG. 5
[7] = Vero cytotoxicity test; assay type: cell-based; settings: African green monkey; Vero cells; mean ± standard deviation of three groups of parallel tests
Experimental: A cytotoxicity test of CVB1, CVB2 and CVB3 on Vero cells was carried out with three groups of parallel tests, respectively, and Table 1 was obtained.

[8] = tested on: CVB2; settings: Coxsackievirus B type 2; CPE in vitro
[9] = tested on: CVB1; experiment: Progeny virus yield of CVB1 in Vero cells (supernatant titrated by plaque reduction test); assay type: cell-based, Coxsackievirus B1 (CVB1); settings: 0.02 MOI CVB1, Vero cells, 72 hours, FIG. 4c
Experimental: After culture for 72 hours, a supernatant was titrated by a plaque reduction test, and results were obtained from three groups of parallel tests.

CN(C)CCC=C1c2ccccc2COc2ccccc21 [doxepin hydrochloride]
antiviral activity (in words) [1]: strong antiviral activity | activity spectrum from inhibition rate (in words) [2]: broad-spectrum activity against Coxsackievirus B | antiviral activity (in words) [3]: strong antiviral activity | antiviral activity (in words) [4]: does not have any antiviral activity | antiviral activity (in words) [5]: does not have any antiviral activity | stage of infection cycle inhibited (in words) [6]: inhibits virus replication at an early stage of an infection cycle | CC50 [7]: 90.7 ± 16.4 µM | antiviral activity (in words) [8]: strong antiviral activity | progeny yield of CVB1 (in words) [9]: inhibited the progeny yield of CVB1
